In ChEMBL document CHEMBL3399993, “Design and synthesis of novel quinoline-aminopiperidine hybrid analogues as Mycobacterium tuberculosis DNA gyraseB inhibitors” (Bioorg Med Chem, 2015):
≈ marks a conversion by molar mass, not a printed value.

System: Mycobacterium tuberculosis
Test: Antimycobacterial activity against extensively drug resistant Mycobacterium tuberculosis
Assay type: functional

## Cc1cc(N2CCC(NC(=O)Nc3ccc(F)cc3)CC2)c2cc(F)ccc2n1
  MIC: 3.82 µM (≈ 1.51 µg/mL)

## COc1ccc2nc(C)cc(N3CCC(NC(=S)Nc4ccccc4)CC3)c2c1
  MIC: 7.62 µM (≈ 3.1 µg/mL)

## COc1ccc2nc(C)cc(N3CCC(NC(=S)Nc4ccc(Cl)cc4)CC3)c2c1
  MIC: 6.94 µM (≈ 3.06 µg/mL)

## COc1ccc2nc(C)cc(N3CCC(NC(=S)Nc4ccc([N+](=O)[O-])cc4)CC3)c2c1
  MIC: 1.72 µM (≈ 0.777 µg/mL)
